One compound from patent US8569372B2, “Method for preventing or treating a disease, disorder or condition induced by retina ischemia” (priority 2011, dated 2013) can be followed below.

Common to all, as to type: in vivo, Wistar rats
Data set [1] concerns MMP-9 mRNA. The data set is described as follows: Real-time PCR of retinal mRNA after ischaemia/reperfusion: MMP-9. Particulars: 100 μM SAC pre-treatment, 24 hours after I/R; control 0.46±0.15, vehicle 1.97±0.38; n=6. How it is done:
(§1) The rats (200-250 g) were anaesthetized and placed in a stereotaxic frame. The anterior chamber of one eye was cannulated with a 30-gauge needle connected to a 0.9% saline reservoir; this caused a high IOP (HIOP) of 120 mmHg for 60 minutes. Eye fundus whitening and a low ERG response confirmed induction of an ischaemic insult. A sham procedure was carried out on the controls. Drug administration involved the pre-administration (15-minute before 60-minute HIOP induced retinal ischaemia) of SAC (25, 50, 100 μM) or vehicle (saline; control). The ischemic eye of each test rat was treated with or without a single intravitreous injection of 5 μl of the test compound. […] The levels of Thy-1, HIF-1 Alpha, VEGF and MMP-9 mRNAs present in the retinas were determined using a real-time PCR technique. […] Relative quantification (a comparative method) was performed using the house keeping gene Beta-actin as the internal standard. This process allows the normalized quantification of the mRNA target (Ct) and takes into account the differences in the amount of total RNA added to each reaction (ΔCt). The relative HIF-1 Alpha/VEGF/MMP-9 expression changes were calculated as fold changes relative to the control with respect to the calibrator (ΔΔCt), which was represented by the control retina. […] The data obtained for each treatment were pooled, and a total percentage change relative to the control was calculated. […]
(Quantitative PCR measures a nucleic acid by following its amplification.)

In data set [2] the test system is HIF-1 Alpha mRNA. The data set is described as follows: Real-time PCR of retinal mRNA after ischaemia/reperfusion: HIF-1 Alpha. Particulars: 100 μM SAC pre-treatment, 24 hours after I/R; control 0.56±0.15, vehicle 1.23±0.23; n=6. How it is done: as §1
The test system of data set [3] is non-ischaemic (normal) eye. As to the kind of experiment: Flash ERG b-wave of the non-ischaemic (normal) eye given SAC (adverse effects). The settings on record: 100 μM SAC, n=3. How it is done: Drug administration involved the pre-administration (15-minute before 60-minute HIOP induced retinal ischaemia) of SAC (25, 50, 100 μM) or vehicle (saline; control). The ischemic eye of each test rat was treated with or without a single intravitreous injection of 5 μl of the test compound. In addition, SAC (100 μM) was administered to the non-ischaemic eye (normal) to see whether SAC has any adverse effects. In both cases, the paired normal eye was untreated.
Flash ERG recordings were performed on all rats before retinal ischaemia (day 0), as well as at 1, 3, 5, and 7 days after ischaemia and treatment with or without the defined chemicals. The animals were dark adapted and anaesthetized to do this. A strobe was placed 2 cm in front of the animal to provide a stimulus of 0.5 Hz. Fifteen consecutive responses were recorded at two-second intervals and at 10 kHz; the responses were amplified and averaged using an amplifier P511/regulated power supply RPS 107/stimulator PS22 (Grass-Telefactor; Astro-Med Inc., West Warwick, R.I., USA). For comparative purposes, the b-wave ratio, namely the b-wave amplitude of the ischaemic/sham-operation eye or the untreated/SAC-treated non-ischaemic (normal) eye as compared with that of the contralateral normal eye, was calculated.

For the compound `C=CCSC[C@H](N)C(=O)O` [SAC, S-allyl L-cysteine], the “MMP-9 mRNA ratio in the retina” value in data set [1] was 0.41±0.15. Further, the “HIF-1 Alpha mRNA ratio in the retina” value in data set [2] was 0.76±0.09. Moreover, the “b-wave amplitude (ratio) of the non-ischemic (normal) eye vs. the fellow normal eye” value was found to be 1.11±0.05 in data set [3] (day 0), 1.05±0.06 in data set [3] (day 1), 1.06±0.12 in data set [3] (day 5) and 0.91±0.09 in data set [3] (day 7). For the same compound, the “adverse effect on the b-wave amplitude (ratio) of the non-ischemic (normal) eye” value in data set [3] (days 0 to 7) is “no significant adverse effect”.
